Reference: patent US20090233848A1, “Pea15 as a Tumor Suppressor Gene” (priority 2004, published 2009)

System: MDA-MB-361 tumor xenografts
Experiment: Tumor growth in HER2-overexpressing MDA-MB-361 breast cancer xenograft model
Format: in vivo, nude mice
Conditions: 20 μg DNA; paclitaxel 15 mg/kg i.p.; compared with LPD-Luciferase
Protocol: Female nude mice were inoculated with HER2-overexpressing MDA-MB-361 cells in the mammary fat pad. After the formation of 8-10 tumors per group (5 animals per group, -2 tumors per animal), mice were given one of the following treatments: naked E1A DNA (20 μg DNA, light circles), vehicle only (small squares), LPD-luciferase (20 μg DNA, triangles), LPD-E1A (20 μg DNA, dark circles), paclitaxel (15 mg/kg, light triangles), or LPD-E1A (20 μg DNA) plus paclitaxel (15 mg/kg) (large squares). The tumor growth ratio was determined by comparing the size of the treated tumors with the size of the original tumor before any treatment. The error bars indicate s.e.m.

## CC(=O)O[C@H]1C(=O)[C@@]2(C)[C@H]([C@H](OC(=O)c3ccccc3)[C@]3(O)C[C@H](OC(=O)[C@H](O)[C@@H](NC(=O)c4ccccc4)c4ccccc4)C(C)=C1C3(C)C)[C@]1(OC(C)=O)CO[C@@H]1C[C@@H]2O [paclitaxel]
  tumor growth: decreased tumor growth
